Assay type in all cases: cell-based
Experiment [1] concerns Leishmania donovani axenic amastigote. Put plainly: In vitro assay for growth inhibition of Leishmania donovani axenic amastigote (Cell TiterGlo luminescence). The settings on record: Leishmania donovani, L. donovani axenic amastigotes in vitro; read-out: L. donovani amastigotes EC50. Put shortly:
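Compound-treated wells received 9600 axenic amastigotes in RPMI 1640-based medium at pH 5.5 (37 °C, 5% CO2). Growth measured as ATP luminescence (CellTiter-Glo) after 2-day incubation; DMSO and reference compounds served as controls.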
(In general: ATP-based viability assays read luminescence as a measure of living cells.)

For experiment [2], the system named is L. donovani HU3 strain in mouse peritoneal macrophages. The experiment in a line: Assay for inhibition of parasitemia of Leishmania donovani in mouse macrophages (SYBR Green nuclei count, high-content imaging). Particulars: L. donovani in mouse peritoneal macrophages, read-out: L. donovani in Mouse Macrophages EC50. An outline of the steps: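 Parasite numbers were counted from SYBR Green-stained nuclei imaged by high-content microscopy after paraformaldehyde fixation and Triton permeabilization. Before this, compound was applied for 5 days at 37° C to BALB/c peritoneal macrophages (2×10^4/well) that had been exposed 24 h to 4×10^5 L. donovani HU3 amastigotes harvested from infected mouse spleens.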

Experiment [3] relates to Trypanosoma cruzi amastigotes cultured in 3T3 fibroblast cells. The experiment in a line: Assay for growth inhibition of kinetoplastid parasite Trypanosoma cruzi (beta-galactosidase Tulahuen strain, CPRG readout). The settings on record: Trypanosoma cruzi, Fibroblast, T. cruzi amastigotes in 3T3 fibroblast cells; read-out: Buckner infectious T. cruzi EC50. Put shortly: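 3T3 fibroblasts (1,000 cells/well) plated overnight, treated with compound in DMSO, then infected with 10,000 Lac-Z-expressing Tulahuen trypomastigotes. After 6 days, 0.6 mM CPRG with 0.6% NP-40 added for 2 h at room temperature; absorbance gives relative intracellular amastigote numbers. Benznidazole and nifurtimox serve as positive controls.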

Experiment [4] relates to Trypanosoma brucei brucei (Lister 427) strain. Put plainly: Assay for growth inhibition against Trypanosoma brucei brucei (Cell TiterGlo ATP luminescence). Particulars: T. brucei brucei (Lister 427), read-out: T. Brucei (HAT) EC50. Put shortly:
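Growth read-out is cellular ATP by CellTiter-Glo luminescence, measured 30 min after reagent addition, following 2-day incubation at 37 °C in CO2. Parasites (10,000/mL, HMI-9 plus 10% FBS and 10% serum plus) faced 10 threefold dilutions in duplicate; IC50 taken as 50% growth inhibition versus untreated.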

Where [5] appears, read: Leishmania donovani, Peritoneal macrophage.

Molecules are shown by their SMILES. pEC50: −log10 of the molar value. Where two headings read alike, the source gives them in different places.

The pEC50 is the negative decadic logarithm of the EC50, by convention in mol/L. Turning to `O=C(Nc1ccc(F)c(-n2cc3cc(N4CCC4)cnc3n2)c1)N1CC(F)C1` [Compound 147, N-{3-[5-(azetidin-1-yl)-2H-pyrazolo[3,4-b]pyridin-2-yl]-4-fluorophenyl}-3-fluoroazetidine-1-carboxamide], the pEC50 was 8.21 in experiment [1], 7.59 in experiment [2] (setting [5]), 8.32 in experiment [3] and > 7.64 in experiment [4] (Trypanosoma brucei).

On to `O=C(Nc1ccc(F)c(-n2cc3cc(N4CC(F)C4)cnc3n2)c1)N1CC[C@@H](F)C1` [Compound 302, (3R)-3-fluoro-N-{4-fluoro-3-[5-(3-fluoroazetidin-1-yl)-2H-pyrazolo[3,4-b]pyridin-2-yl]phenyl}pyrrolidine-1-carboxamide], for which the pEC50 was 6.93 in experiment [1], 7.82 in experiment [2] (setting [5]), 8.70 in experiment [3] and 8.30 in experiment [4] (Trypanosoma brucei).

Turning to `CC(C)c1cnc2nn(-c3cc(NC(=O)c4cc(Cl)ccc4F)ccc3F)cc2c1` [Compound 89, 5-chloro-2-fluoro-N-{4-fluoro-3-[5-(propan-2-yl)-2H-pyrazolo[3,4-b]pyridin-2-yl]phenyl}benzamide], the pEC50 is 6.33 in experiment [1], 6.57 in experiment [2] (setting [5]), 7.49 in experiment [3] and 7.48 in experiment [4] (Trypanosoma brucei).

Consider `[2H]C([2H])([2H])N(c1cnc2nn(-c3cc(NC(=O)N4CC(F)(F)C4)ccc3F)cc2c1)C([2H])([2H])[2H]` [Compound 307, N-(3-{5-[bis(^2H3)methylamino]-2H-pyrazolo[3,4-b]pyridin-2-yl}-4-fluorophenyl)-3,3-difluoroazetidine-1-carboxamide], for which the pEC50 in experiment [1] was 6.55; in experiment [2] (setting [5]), 7.92; in experiment [3], 7.80; in experiment [4] (Trypanosoma brucei), 8.30.

Regarding `CC(C)c1cnc2nn(-c3cc(NC(=O)OCCC(F)(F)F)ccc3F)cc2c1` [Compound 174, 3,3,3-trifluoropropyl N-{4-fluoro-3-[5-(propan-2-yl)-2H-pyrazolo[3,4-b]pyridin-2-yl]phenyl}carbamate], the pEC50 was 5.70 in experiment [1], 5.57 in experiment [2] (setting [5]), 6.14 in experiment [3] and 6.00 in experiment [4] (Trypanosoma brucei).

For `O=C(Nc1ccc(F)c(-n2cc3cc(N4C5CCC4COC5)cnc3n2)c1)N1CC(F)C1` [Compound 235, 3-fluoro-N-[4-fluoro-3-(5-{3-oxa-8-azabicyclo[3.2.1]octan-8-yl}-2H-pyrazolo[3,4-b]pyridin-2-yl)phenyl}azetidine-1-carboxamide], the pEC50 in experiment [1] was 7.96; in experiment [2] (setting [5]), 8.00; in experiment [3], 7.96; in experiment [4] (Trypanosoma brucei), 8.30.

As for `CC(C)CCc1cnc2nn(-c3cc(NC(=O)N4CC[C@@H](F)C4)ccc3F)cc2c1` [Compound 52, (3R)-3-fluoro-N-{4-fluoro-3-[5-(3-methylbutyl)-2H-pyrazolo[3,4-b]pyridin-2-yl]phenyl}pyrrolidine-1-carboxamide], the pEC50 is 7.72 in experiment [1], 7.96 in experiment [2] (setting [5]), 7.89 in experiment [3] and > 7.64 in experiment [4] (Trypanosoma brucei).

For `O=C(Nc1ccc(F)c(-n2cc3cc(C(F)(F)F)cnc3n2)c1)N1CC(F)(F)C1` [Compound 324, 3,3-difluoro-N-{4-fluoro-3-[5-(trifluoromethyl)-2H-pyrazolo[3,4-b]pyridin-2-yl]phenyl}azetidine-1-carboxamide], the pEC50 in experiment [1] was 7.82; in experiment [2] (setting [5]), 7.35; in experiment [3] it was 7.80; in experiment [4] (Trypanosoma brucei), 7.43.

Regarding `Cc1nc(C2CC2)oc1C(=O)Nc1ccc(F)c(-n2cc3cc(C(C)C)cnc3n2)c1` [Compound 76, 2-cyclopropyl-N-{4-fluoro-3-[5-(propan-2-yl)-2H-pyrazolo[3,4-b]pyridin-2-yl]phenyl}-4-methyl-1,3-oxazole-5-carboxamide], the pEC50 in experiment [1] was 5.96; in experiment [2] (setting [5]), 6.03; in experiment [3] it was 6.39; in experiment [4] (Trypanosoma brucei), 6.32.

For `CN(C)c1cnc2nn(-c3cc(NC(=O)N4CC5(CC5)C4)ccc3F)cc2c1` [Compound 260, N-{3-[5-(dimethylamino)-2H-pyrazolo[3,4-b]pyridin-2-yl]-4-fluorophenyl}-5-azaspiro[2.3]hexane-5-carboxamide], the pEC50 is 6.66 in experiment [1], 6.65 in experiment [2] (setting [5]), 7.31 in experiment [3] and 7.37 in experiment [4] (Trypanosoma brucei).

With `O=C(Nc1ccc(F)c(-n2cc3cc(-c4ccc(F)cn4)cnc3n2)c1)N1CC(F)C1` [Compound 329, 3-fluoro-N-{4-fluoro-3-[5-(5-fluoropyridin-2-yl)-2H-pyrazolo[3,4-b]pyridin-2-yl]phenyl}azetidine-1-carboxamide], the pEC50 in experiment [1] is 9.00; in experiment [2] (setting [5]), 8.70; in experiment [3], 9.00; in experiment [4] (Trypanosoma brucei), 8.70.

For `CCC(C)c1cnc2nn(-c3cc(NC(=O)N4CC[C@@H](F)C4)ccc3F)cc2c1` (stereo partly drawn) [Compound 50, (3R)-N-{3-[5-(butan-2-yl)-2H-pyrazolo[3,4-b]pyridin-2-yl]-4-fluorophenyl}-3-fluoropyrrolidine-1-carboxamide], the pEC50 in experiment [1] is 7.11; in experiment [2] (setting [5]), 7.00; in experiment [3], 7.10; in experiment [4] (Trypanosoma brucei), > 7.64.

For the compound `O=C(Nc1ccc(F)c(-n2cc3cc(Br)cnc3n2)c1)N1CC2(CC2)C1` [Compound 254, N-(3-(5-bromo-2H-pyrazolo[3,4-b]pyridin-2-yl)-4-fluorophenyl)-5-azaspiro[2.3]hexane-5-carboxamide], the pEC50 is 7.04 in experiment [1], 6.17 in experiment [2] (setting [5]), 7.30 in experiment [3] and 6.59 in experiment [4] (Trypanosoma brucei).

For `Cc1cn(-c2cnc3nn(-c4cc(NC(=O)N5CC(F)C5)ccc4F)cc3c2)cn1` [Compound 328, 3-fluoro-N-{4-fluoro-3-[5-(4-methyl-1H-imidazol-1-yl)-2H-pyrazolo[3,4-b]pyridin-2-yl]phenyl}azetidine-1-carboxamide], the pEC50 in experiment [1] was 7.64; in experiment [2] (setting [5]), 6.80; in experiment [3], 7.08; in experiment [4] (Trypanosoma brucei), 7.77.

For `CCCC(C)c1cnc2nn(-c3cc(NC(=O)N4CCC4)ccc3F)cc2c1` (centres unmarked) [Compound 95, N-{4-fluoro-3-[5-(pentan-2-yl)-2H-pyrazolo[3,4-b]pyridin-2-yl]phenyl}azetidine-1-carboxamide], the pEC50 in experiment [1] is 6.38; in experiment [2] (setting [5]), 6.46; in experiment [3], 6.77; in experiment [4] (Trypanosoma brucei), 7.07.

With `CC(C)(C)OC(=O)N1CCCC1c1cnc2nn(-c3cc(NC(=O)N4CCC4)ccc3F)cc2c1` (centres unmarked) [Compound 247, tert-butyl 2-(2-{5-[(azetidine-1-carbonyl)amino]-2-fluorophenyl}-2H-pyrazolo[3,4-b]pyridin-5-yl)pyrrolidine-1-carboxylate], the pEC50 is 7.40 in experiment [1], 7.64 in experiment [2] (setting [5]), 7.85 in experiment [3] and 8.30 in experiment [4] (Trypanosoma brucei).

As for `O=C(Nc1ccc(F)c(-n2cc3cc(N4CC(F)(F)C4)cnc3n2)c1)[C@@H]1C[C@H]1F` (single isomer, unassigned) [Compound 268, (1 S,2R)—N-(3-(5-(3,3-difluoroazetidin-1-yl)-2H-pyrazolo[3,4-b]pyridin-2-yl)-4-fluorophenyl)-2-fluorocyclopropane-1-carboxamide or (1R,2S)—N-(3-(5-(3,3-difluoroazetidin-1-yl)-2H-pyrazolo[3,4-b]pyridin-2-yl)-4-fluorophenyl)-2-fluorocyclopropane-1-carboxamide], the pEC50 in experiment [1] is 7.08; in experiment [2], 6.56; in experiment [3], 7.09; in experiment [4] it was 6.94.

As for `Cc1nc(C)c(C(=O)Nc2ccc(F)c(-n3cc4cc(-c5ccccn5)cnc4n3)c2)o1` [Compound 108, N-{4-fluoro-3-[5-(pyridin-2-yl)-2H-pyrazolo[3,4-b]pyridin-2-yl]phenyl}-2,4-dimethyl-1,3-oxazole-5-carboxamide], the pEC50 in experiment [1] was 8.48; in experiment [2] (setting [5]), 8.40; in experiment [3], 8.42; in experiment [4] (Trypanosoma brucei), > 7.64.

Consider `CC(C)c1cnc2nn(-c3cc(NC(=O)C4CC4(F)F)ccc3F)cc2c1` (centres unmarked) [Compound 208, 2,2-difluoro-N-{4-fluoro-3-[5-(propan-2-yl)-2H-pyrazolo[3,4-b]pyridin-2-yl]phenyl}cyclopropane-1-carboxamide], for which the pEC50 in experiment [1] was 6.04; in experiment [2] (setting [5]), 5.72; in experiment [3] it was 6.45; in experiment [4] (Trypanosoma brucei) it was 6.43.

With `Cc1nc(C(=O)Nc2ccc(F)c(-n3cc4cc(C(C)C)cnc4n3)c2)c(C)o1` [Compound 74, N-{4-fluoro-3-[5-(propan-2-yl)-2H-pyrazolo[3,4-b]pyridin-2-yl]phenyl}-2,5-dimethyl-1,3-oxazole-4-carboxamide], the pEC50 was 6.12 in experiment [1], 6.09 in experiment [2] (setting [5]), 7.24 in experiment [3] and 6.96 in experiment [4] (Trypanosoma brucei).
